Reference: PubChem BioAssay (NCI)
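Five concentrations, 48 hours, 96-well plates. At the GI50, growth is halved. Definition used: TGI = concentration required for complete inhibition of growth.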

Experiments:
Test in all cases: growth of human tumour cells (NCI), 48 h; in the data active = GI50 below about 0.43 µM; inactive = the rest
M14 melanoma = tested on: M14 melanoma
SNB-19 CNS = tested on: SNB-19 CNS
OVCAR-4 ovarian = tested on: OVCAR-4 ovarian
786-0 renal = tested on: 786-0 renal
COLO 205 colon = tested on: COLO 205 colon
DU-145 prostate = tested on: DU-145 prostate
SK-MEL-5 melanoma = tested on: SK-MEL-5 melanoma
UACC-62 melanoma = tested on: UACC-62 melanoma
SF-539 CNS = tested on: SF-539 CNS
ACHN renal = tested on: ACHN renal
OVCAR-3 ovarian = tested on: OVCAR-3 ovarian
IGROV1 ovarian = tested on: IGROV1 ovarian
MCF7 breast = tested on: MCF7 breast
NCI-H522 lung = tested on: NCI-H522 lung
SK-OV-3 ovarian = tested on: SK-OV-3 ovarian
SK-MEL-2 melanoma = tested on: SK-MEL-2 melanoma
OVCAR-5 ovarian = tested on: OVCAR-5 ovarian
SF-268 CNS = tested on: SF-268 CNS
NCI-H23 lung = tested on: NCI-H23 lung
CCRF-CEM leukemia = tested on: CCRF-CEM leukemia
MDA-MB-231 breast = tested on: MDA-MB-231 breast
HOP-92 NSCLC = tested on: HOP-92 NSCLC
LOX IMVI melanoma = tested on: LOX IMVI melanoma
MDA-MB-435 = tested on: MDA-MB-435
K-562 leukemia = tested on: K-562 leukemia
NCI/ADR-RES ovarian = tested on: NCI/ADR-RES ovarian
KM12 colon = tested on: KM12 colon
UO-31 renal = tested on: UO-31 renal
A498 renal = tested on: A498 renal
SF-295 CNS = tested on: SF-295 CNS
NCI-H226 lung = tested on: NCI-H226 lung
T-47D breast = tested on: T-47D breast
NCI-H460 lung = tested on: NCI-H460 lung
SNB-75 CNS = tested on: SNB-75 CNS
BT-549 breast = tested on: BT-549 breast
HS 578T breast = tested on: HS 578T breast
HCT-116 colon = tested on: HCT-116 colon
SR leukemia = tested on: SR leukemia
EKVX NSCLC = tested on: EKVX NSCLC
HL-60(TB) leukemia = tested on: HL-60(TB) leukemia
RXF 393 renal = tested on: RXF 393 renal
HCC-2998 colon = tested on: HCC-2998 colon
SK-MEL-28 melanoma = tested on: SK-MEL-28 melanoma
UACC-257 melanoma = tested on: UACC-257 melanoma
SW-620 colon = tested on: SW-620 colon
TK-10 renal = tested on: TK-10 renal
MOLT-4 leukemia = tested on: MOLT-4 leukemia
OVCAR-8 ovarian = tested on: OVCAR-8 ovarian
CAKI-1 renal = tested on: CAKI-1 renal
RPMI-8226 leukemia = tested on: RPMI-8226 leukemia
A549 NSCLC = tested on: A549 NSCLC
HOP-62 NSCLC = tested on: HOP-62 NSCLC
SN12C renal = tested on: SN12C renal
PC-3 prostate = tested on: PC-3 prostate
HT29 colon = tested on: HT29 colon
U251 CNS = tested on: U251 CNS
HCT-15 colon = tested on: HCT-15 colon

Nc1nc(/C=C\c2ccc([N+](=O)[O-])s2)nc(N2CCOCC2)n1
15.3 µM: TGI (OVCAR-4 ovarian)
42.1 µM: TGI (MOLT-4 leukemia)
37.5 µM: TGI (OVCAR-3 ovarian)
23.1 µM: TGI (UACC-257 melanoma)
39.6 µM: TGI (CAKI-1 renal)
17.1 µM: TGI (NCI-H522 lung)
26.4 µM: TGI (SN12C renal)
46.9 µM: TGI (TK-10 renal)
69.5 µM: TGI (SNB-19 CNS)
56.8 µM: TGI (EKVX NSCLC)
19.8 µM: TGI (IGROV1 ovarian)
17.7 µM: TGI (ACHN renal)
> 100 µM: TGI (SF-295 CNS) | TGI (HS 578T breast) | TGI (SW-620 colon) | TGI (OVCAR-8 ovarian)
43 µM: TGI (SK-OV-3 ovarian)
30.1 µM: TGI (786-0 renal) | TGI (UO-31 renal)
9.52 µM: TGI (LOX IMVI melanoma)
inactive: GI50 (M14 melanoma) 10.5 µM | GI50 (SNB-19 CNS) 23.3 µM | GI50 (OVCAR-4 ovarian) 2.65 µM | GI50 (786-0 renal) 15.8 µM | GI50 (COLO 205 colon) 2.08 µM | GI50 (DU-145 prostate) 11 µM | GI50 (SK-MEL-5 melanoma) 5.84 µM | GI50 (UACC-62 melanoma) 7.08 µM | GI50 (SF-539 CNS) 19.7 µM | GI50 (ACHN renal) 5.06 µM | GI50 (OVCAR-3 ovarian) 15.2 µM | GI50 (IGROV1 ovarian) 4.93 µM | GI50 (MCF7 breast) 5.77 µM | GI50 (NCI-H522 lung) 4.57 µM | GI50 (SK-OV-3 ovarian) 16.3 µM | GI50 (SK-MEL-2 melanoma) 17.4 µM | GI50 (OVCAR-5 ovarian) 22.2 µM | GI50 (SF-268 CNS) 8.24 µM | GI50 (NCI-H23 lung) 10.2 µM | GI50 (CCRF-CEM leukemia) 3.33 µM | GI50 (MDA-MB-231 breast) 5.55 µM | GI50 (HOP-92 NSCLC) 13.2 µM | GI50 (LOX IMVI melanoma) 2.12 µM | GI50 (MDA-MB-435) 8.19 µM | GI50 (K-562 leukemia) 7.71 µM | GI50 (NCI/ADR-RES ovarian) 12.7 µM | GI50 (KM12 colon) 3.5 µM | GI50 (UO-31 renal) 14.9 µM | GI50 (A498 renal) 9 µM | GI50 (SF-295 CNS) 36.4 µM | GI50 (NCI-H226 lung) 16 µM | GI50 (T-47D breast) 8.98 µM | GI50 (NCI-H460 lung) 13.7 µM | GI50 (SNB-75 CNS) 13.8 µM | GI50 (BT-549 breast) 9.29 µM | GI50 (HS 578T breast) 25.6 µM | GI50 (HCT-116 colon) 2.98 µM | GI50 (SR leukemia) 5.14 µM | GI50 (EKVX NSCLC) 17.8 µM | GI50 (HL-60(TB) leukemia) 6.45 µM | GI50 (RXF 393 renal) 11.1 µM | GI50 (HCC-2998 colon) 5.18 µM | GI50 (SK-MEL-28 melanoma) 17.9 µM | GI50 (UACC-257 melanoma) 10.7 µM | GI50 (SW-620 colon) 13.9 µM | GI50 (TK-10 renal) 22 µM | GI50 (MOLT-4 leukemia) 11.1 µM | GI50 (OVCAR-8 ovarian) 13.7 µM | GI50 (CAKI-1 renal) 19.7 µM | GI50 (RPMI-8226 leukemia) 3.45 µM | GI50 (A549 NSCLC) 16.1 µM | GI50 (HOP-62 NSCLC) 17.8 µM | GI50 (SN12C renal) 13 µM | GI50 (PC-3 prostate) 11.5 µM
33.3 µM: TGI (NCI/ADR-RES ovarian)
22.8 µM: TGI (MDA-MB-435)
19.7 µM: TGI (UACC-62 melanoma)
26.9 µM: TGI (BT-549 breast)
26.2 µM: TGI (HL-60(TB) leukemia) | TGI (RXF 393 renal)
26.6 µM: TGI (NCI-H460 lung)
37.2 µM: TGI (OVCAR-5 ovarian)
10.9 µM: TGI (HCT-116 colon)
19.1 µM: TGI (SK-MEL-5 melanoma) | TGI (MDA-MB-231 breast)
16.5 µM: TGI (KM12 colon)
46.2 µM: TGI (NCI-H226 lung)
26.7 µM: TGI (DU-145 prostate)
32.6 µM: TGI (A549 NSCLC)
24.7 µM: TGI (M14 melanoma) | TGI (K-562 leukemia)
19.5 µM: TGI (MCF7 breast)
22.7 µM: TGI (NCI-H23 lung) | TGI (A498 renal)
16.7 µM: TGI (HCC-2998 colon)
28.1 µM: TGI (HOP-92 NSCLC) | TGI (T-47D breast) | TGI (PC-3 prostate)
34.2 µM: TGI (SNB-75 CNS)
16.9 µM: TGI (CCRF-CEM leukemia)
38.2 µM: TGI (SK-MEL-28 melanoma)
17.6 µM: TGI (RPMI-8226 leukemia)
46.3 µM: TGI (SF-539 CNS)
22 µM: TGI (SF-268 CNS)
32.9 µM: TGI (HOP-62 NSCLC)
20.3 µM: TGI (SR leukemia)
5.09 µM: TGI (COLO 205 colon)
44.7 µM: TGI (SK-MEL-2 melanoma)

O=C(Cc1ccccc1CCO)NCCc1ccccc1
> 100 µM: TGI (M14 melanoma) | TGI (SNB-19 CNS) | TGI (OVCAR-4 ovarian) | TGI (786-0 renal) | TGI (COLO 205 colon) | TGI (DU-145 prostate) | TGI (SK-MEL-5 melanoma) | TGI (UACC-62 melanoma) | TGI (SF-539 CNS) | TGI (HT29 colon) | TGI (ACHN renal) | TGI (U251 CNS) | TGI (OVCAR-3 ovarian) | TGI (IGROV1 ovarian) | TGI (MCF7 breast) | TGI (NCI-H522 lung) | TGI (SK-OV-3 ovarian) | TGI (SK-MEL-2 melanoma) | TGI (OVCAR-5 ovarian) | TGI (SF-268 CNS) | TGI (NCI-H23 lung) | TGI (CCRF-CEM leukemia) | TGI (MDA-MB-231 breast) | TGI (HOP-92 NSCLC) | TGI (MDA-MB-435) | TGI (K-562 leukemia) | TGI (NCI/ADR-RES ovarian) | TGI (KM12 colon) | TGI (UO-31 renal) | TGI (A498 renal) | TGI (SF-295 CNS) | TGI (NCI-H226 lung) | TGI (T-47D breast) | TGI (NCI-H460 lung) | TGI (SNB-75 CNS) | TGI (BT-549 breast) | TGI (HS 578T breast) | TGI (HCT-116 colon) | TGI (SR leukemia) | TGI (EKVX NSCLC) | TGI (HL-60(TB) leukemia) | TGI (RXF 393 renal) | TGI (HCC-2998 colon) | TGI (SK-MEL-28 melanoma) | TGI (UACC-257 melanoma) | TGI (HCT-15 colon) | TGI (SW-620 colon) | TGI (TK-10 renal) | TGI (MOLT-4 leukemia) | TGI (OVCAR-8 ovarian) | TGI (CAKI-1 renal) | TGI (RPMI-8226 leukemia) | TGI (A549 NSCLC) | TGI (HOP-62 NSCLC) | TGI (SN12C renal) | TGI (PC-3 prostate)
